Assay results published in patent EP1884251A1, “Use of fragrance compositions for the prevention of the development of indole based malodours from faecal and urine based soils” (Takasago International Corporation, priority 2006, dated 2008).

Assay: Change in fragrance compound concentration during the indole inhibition test (GC-MS at start and after 24 hours)
Format: physicochemical
Settings: in fresh human urine, room temperature; for Decrease in Fragrance Compounds after 24 hours (%) >60%: category >60%; for Decrease in Fragrance Compounds after 24 hours (%) 0-30%: category 0-30%
Method: Advantageously, the appropriate fragrance compounds may be selected by using the following preferred indole inhibition test which comprises the following steps: • A) 0.02g of fragrance and 0.02g of Tergitol 15-s-12 was added to 7g of fresh human urine in a 20 ml Headspace vial sealed with a PTFE faced septum and well mixed for 10 minutes using a magnetic stirrer. For a blank to test the suitability of a batch of fresh human urine, 7g of human urine was used with 0.02g of demineralised water and 0.02g of Tergitol 15-s-12. If a control was required, to test the efficacy of product base for example, the control contained 7g of human urine to which was added 0.02g of fragrance, minus the active agents and 0.02g of Tergitol 15-s-12. • B) The vials are placed in an autosampler tray at room temperature. • C) At different times the headspace in the vials is sampled for 5 minutes at 35°C by an SPME fibre (PDMS fibre ex Supelco) after 10 minutes at 35°C (incubation time). • D) The SPME fibre is desorbed 1 minute at 265°C from a CTC Combipal autosampler and injected in splitless mode onto an Agilent GC-MS 5973N with a HP-INNOWAX column (30m x 0.25 x 0.25). (Oven conditions : 50°C during 2min - to 250°C at 10°C/min - 250°C during 5 minutes). • E) Under the above GC-MS conditions, indole has a retention time of 19.14 minutes, and can be recognised by its characteristic ions (m/z 117, m/z 89 and m/z 90). • F) In the range of values determined in this work, the area of the indole peak (117) is linearly related to the actual concentration in the vial, and was used without further correction to establish the concentration of indole in "Active" and "Blank" and if present any "Control" fragrances. • G) The material is deemed to be active if the indole concentration in the test sample is below 0.01ppm (wt/wt) after 24 hours incubation at room temperature and the indole in the blank samples is between 0.25ppm (wt/wt) and 1.25ppm (wt/wt) indole after 24 hours storage at room temperature. • H) The change in the active ingredient concentration is determined by comparing measurements at the start of the experiment and after 24 hours using appropriate characteristic ions.
This can be determined by measuring the fragrance concentration in the sample containing the test cocktail at the start and end of the indole inhibition test as described in step I of the test. If the difference between the measurements is less than 60% preferably less than 30% then the material is considered as not to have changed sufficiently to alter the fragrance note and to be particularly preferred.
A sample of fresh human urine is divided into equal portions and a fragrance containing one or more of the effective materials was added as described in the Indole Inhibition Test. […] The samples were stored and after 24 hours the indole content and fragrance active content is measured by gas chromatography with mass spectrometric (GCMS) detection. Those formulations containing active ingredients prevented the formation of indole while both the unfragranced and the alcohol containing control samples had much greater quantities of indole present. Also for the active compounds a GCMS measurement indicated the extent to which the compound was itself consumed as part of the process. In table 2 the decrease in fragrance components has been classified into 3 categories and the letter Y indicates the appropriate category for the compounds which have been measured. The absence of a letter Y in any category means that the decrease has not been measured for that compound. Table 2. Examples of effective materials

| SMILES | Decrease in Fragrance Compounds after 24 hours (%) 0-30% | further results |
| --- | --- | --- |
| CCCCCCCCCCC=O [Aldehyde C11] |  | Decrease in Fragrance Compounds after 24 hours (%) >60%: Y (Y= Yes) |
| O=Cc1ccccc1 [Benzaldehyde] | Y (Y= Yes) |  |
| O=C/C=C/c1ccccc1 [Cinnamic aldehyde] | Y (Y= Yes) |  |
| CC(C)=CCCC(C)=CC=O [Citral] | Y (Y= Yes) |  |
| C=C(C)C1CC=C(C=O)CC1 (stereo not shown) [Perilla aldehyde] | Y (Y= Yes) |  |
| CCC/C=C/C=O [Trans 2 hexenal] |  | Decrease in Fragrance Compounds after 24 hours (%) 0-60% (category 0-60%): Y (Y= Yes) |
| CCc1occc(=O)c1O [Veltol Plus] |  | Decrease in Fragrance Compounds after 24 hours (%) >60%: Y (Y= Yes) |
